# From patent publication US5248691A, “Furanoindolines” (Eli Lilly and Company, priority 1992, dated 1993)
# Read-outs that look alike come from different tables or passages of the source.
# Assays:
# [1] = test system: human lung adenocarcinoma (P3/UCLA); experiment: In vitro cytotoxicity, similar protocol, P3/UCLA cells; type: cell-based
# Protocol: (§1) The cytotoxicities of 4-12 were determined by incubation (48 hours) of drug with a human squamous cell lung carcinoma (T222) and percent inhibition determined by measurement of [^3 H]leucine uptake. T222 (Masui, et al. Cancer, 44(3): 1002-1007, 1984) human squamous carcinoma and P3/UCLA (Varki, et al., Cancer Res. 44: 681-687, 1984) human lung carcinoma cells were grown in DMEM medium supplemented with 10% fetal bovine serum and 50 ug/mL gentamicin using standard tissue culture techniques. 1×10^4 target cells were distributed in each well of 96 well tissue culture plates and incubated in leucine deficient medium (leucine free DMEM plus 13 ug/mL L-leucine, 29.2 ug/mL L glutamine, 50 ug/mL gentamicin and 10% dialyzed fetal calf serum) for 16 hours at 37° C. in 5% CO2. The medium was then removed aseptically and compound dilutions were added in 200 ul of leucine deficient medium. Following an additional 48 hour incubation, 4 uCi ^3 H-leucine (NEN, Boston, Mass.) were added to each well and the plates were returned to the incubator for 24 hours. Radioactivity incorporated into macromolecules was determined using an automated cell harvester and liquid scintillation techniques. Data were evaluated as percent reduction in incorporation of radioactivity relative to controls incubated in medium without compound to yield an 50% cytotoxic concentration (IC50).
# T222 tumor = experiment: Nude mouse xenograft, T222 tumor burden (i.v.); type: in vivo, nude mice; design: inhibition of growth of tumors (in words): dose or concentration left out as unconfirmed; settings: for Number of Deaths/Number of Mice / Percent Inhibition of Tumor Growth: days 3, 5 and 7
# Protocol: Prior to each xenograft experiment, cells were collected by treatment with Trypsin/EDTA (Gibco, Life Technologies, Grand Island, N.Y.) and washed with supplemented DMEM and finally suspended in Hanks balanced salt solution. 1×10^7 cells were injected s.c. into the flank of young adult female nude mice (Charles River Breeding Laboratories, Boston, Mass.). The mice were treated by i.v. injection in the tail vein at various time points. Tumor measurements were taken in two dimensions and converted to an estimate of mass using the formula [(length) (width^2)/2] as described by Geran, et al.. Cancer Chemother. Rep., 3:1-103, 1972. Control groups contained 10 mice with test groups containing 5 mice each. The Student test was used to evaluate differences between mean tumor masses.
# [2] = test system: human squamous cell lung carcinoma (T222); experiment: In vitro cytotoxicity, [3H]leucine uptake, T222 cells; type: cell-based; settings: for IC50: read-out: IC50 (50% cytotoxic concentration)
# Protocol: as §1
# [3] = single intravenous subtherapeutic dose; healthy mice; cited from earlier work
# [4] = test system: minor groove of double stranded DNA; settings: cited from earlier work
# [5] = T222 human squamous cell lung carcinoma, 48 hours incubation, [3H]leucine uptake
compound,measurement,setting,value
"Cc1coc2c(O)cc3c(c12)C(CCl)CN3C(=O)c1cc2cc(NC(=O)c3cc4ccccc4[nH]3)ccc2[nH]1 (single isomer, unassigned; (+)) [Compound 4]",IC50,[1],0.27 ng/mL
same,Number of Deaths/Number of Mice,T222 tumor; 0.05 mg/kg i.v.,0/5
same,Percent Inhibition of Tumor Growth,T222 tumor; 0.05 mg/kg i.v.,68%
same,Number of Deaths/Number of Mice,T222 tumor; 0.1 mg/kg i.v.,0/5
same,Percent Inhibition of Tumor Growth,T222 tumor; 0.1 mg/kg i.v.,73%
same,Number of Deaths/Number of Mice,T222 tumor; 0.2 mg/kg i.v.,1/5
same,Percent Inhibition of Tumor Growth,T222 tumor; 0.2 mg/kg i.v.,85%
same,Number of Deaths/Number of Mice,T222 tumor; 0.4 mg/kg i.v.,5/5
same,inhibition of growth of tumors (in words),"T222 tumor; intravenously on days 3, 5 and 7, T222 burden injected s.c. at day 0",inhibited the growth of tumors
same,IC50,[2]; [5],0.17 ng/mL
"Cc1coc2c(O)cc3c(c12)C(CCl)CN3C(=O)c1cc2cc(NC(=O)c3cc4ccccc4o3)ccc2[nH]1 (single isomer, unassigned; (+)) [Compound 5]",IC50,[2]; [5],0.15 ng/mL
"Cc1coc2c(O)cc3c(c12)C(CCl)CN3C(=O)c1cc2cc(NC(=O)c3cc4ccccc4s3)ccc2[nH]1 (single isomer, unassigned; (+)) [Compound 6]",IC50,[2]; [5],0.2 ng/mL
"Cc1coc2c(O)cc3c(c12)C(CCl)CN3C(=O)c1cc2cc(NC(=O)c3cc4ccccc4[nH]3)ccc2o1 (single isomer, unassigned; (+)) [Compound 7]",IC50,[2]; [5],0.23 ng/mL
"Cc1coc2c(O)cc3c(c12)C(CCl)CN3C(=O)c1cc2cc(NC(=O)c3cc4ccccc4o3)ccc2o1 (single isomer, unassigned; (+)) [Compound 8]",IC50,[2]; [5],0.37 ng/mL
"Cc1coc2c(O)cc3c(c12)C(CCl)CN3C(=O)c1cc2cc(NC(=O)c3cc4ccccc4s3)ccc2o1 (single isomer, unassigned; (+)) [Compound 9]",IC50,[2]; [5],0.56 ng/mL
"Cc1coc2c(O)cc3c(c12)C(CCl)CN3C(=O)c1cc2cc(NC(=O)c3cc4ccccc4[nH]3)ccc2s1 (single isomer, unassigned; (+)) [Compound 10]",IC50,[2]; [5],0.29 ng/mL
"Cc1coc2c(O)cc3c(c12)C(CCl)CN3C(=O)c1cc2cc(NC(=O)c3cc4ccccc4o3)ccc2s1 (single isomer, unassigned; (+)) [Compound 11]",IC50,[2]; [5],0.26 ng/mL
"Cc1coc2c(O)cc3c(c12)C(CCl)CN3C(=O)c1cc2cc(NC(=O)c3cc4ccccc4s3)ccc2s1 (single isomer, unassigned; (+)) [Compound 12]",IC50,[2]; [5],0.2 ng/mL
"CCC1(O)CC2CN(CCc3c([nH]c4ccccc34)C(C(=O)OC)(c3cc4c(cc3OC)N(C)C3C(O)(C(=O)NN)C(O)C5(CC)C=CCN6CCC43C65)C2)C1 (stereo not shown) [4-desacetylvinblastine-3-carboxhydrazide, reference compound]",IC50,"[2]; Homo sapiens, T222, 48 h",3 ng/mL
COc1c(O)c2c(c3cc(C(=O)N4CCc5c4c(O)c(OC)c4[nH]c(C(=O)N6CC7CC78C6=CC(=O)c6[nH]cc(C)c68)cc54)[nH]c13)CCN2C(N)=O (stereo not shown) [CC-1065],delayed deaths / hepatotoxicity,[3],led to delayed deaths of healthy mice as a result of the hepatotoxicity
same,DNA binding,[4],binds covalently to the minor groove of double stranded DNA
Cc1coc2c(O)cc3c(c12)C(CCl)CN3C(=O)c1cc2cc(NC(=O)c3cc4ccccc4[nH]3)ccc2[nH]1 (stereo not drawn) [enantiomer of 4],antineoplastic potency relative to 4,"[2]; T222 cell line, compared with 4",approximately ten fold less potent
